Assays:
Assay type in all cases: in vivo
Parameters in all cases: key: compounds are considered to be active when, at a concentration of 500 ppm or less, their action on the harmful organisms is 50% or more
[1] = tested on: eggs of the American tobacco budworm (Heliothis virescens); assay: Example C: eggs of American tobacco budworm, Petri dish with culture medium; conditions: 500 ppm or less; eggs dipped 5 seconds, 200 μl on culture medium; after 6 days
Protocol: (§1) In Examples A to L below, compounds are considered to be active when, at a concentration of 500 ppm or less, their action on the harmful organisms is 50% or more.
A Petri dish whose bottom was covered with filter paper and which contained about 5 ml of culture medium was prepared. Pieces of filter paper with about 30, one-day-old eggs of the American tobacco budworm (Heliothis virescens) were dipped for 5 seconds into an aqueous solution of the formulated preparation to be examined and subsequently placed in a Petri dish. A further 200 μl of the aqueous solution were spread over the culture medium. The Petri dish was closed and then stored at about 25° C. in a climatized chamber. After 6 days of storage, the effect of the preparation on the eggs and any larvae which may have hatched from these (mortality) was determined. The following examples were active: Nos. 6, 27, 28, 29, 31, 35, 39, 43, 45, 59, 97, 226, 227, 228, 229, 351, 356, 357, 592, 593, 595, 949, 1001, 1126, 1129, 1132.

[2] = tested on: larvae of the root gall nematode (Meloidogyne incognita); assay: Example F: root gall nematode, contact action (part A) and soil drench action on cucumber (part B); conditions: 500 ppm or less; part A 6 days exposure, part B root galls on cucumber after 2 weeks (Abbott's formula)
Protocol: as §1
Part A of the examination (contact action): in a glass vessel, an aqueous solution of the formulated preparation to be examined was added to about 5000 freshly hatched active (mobile) larvae (2nd development stage) of the root gall nematode (Meloidogyne incognita) (final volume 20 ml). After 6 days of permanent exposure of the nematode larvae, the percentage of the individual larvae immobilized by the action of the preparation was determined in comparison to the untreated controls (nematicidal contact action in percent).
Part B of the examination (soil drench action): to this end, the entire solution from part A of the examination (active compound and pre-treated nematode larvae) was poured into a pot, filled with 60 ml of soil, into which three 9-day-old cucumber plants (Cucumis sativus) had been planted. This drench application reduced the active compound content based on the soil volume to one third of the active compound content in part A of the examination. After 2 weeks in a greenhouse at about 26° C. (watering: twice a day), the root balls of the cucumber plants were carefully washed out of the soil mixture contaminated with nematodes. The number of root galls per plant was counted and compared to the infection of untreated control plants. The reduction of the infection in percent as a criterion for the assessment of the activity was calculated using Abbott's formula (nematicidal soil drench action). The following examples were active: Nos. 6, 7, 29, 32, 34, 44, 356.

[3] = tested on: eggs of the corn rootworm (Diabrotica undecimpunctata); assay: Example E: eggs of corn rootworm, Petri dish with maize corn; conditions: 500 ppm or less, after 6 days
Protocol: as §1
A Petri dish, half of whose bottom was covered with filter paper and which contained a germinated maize corn on a moist cotton pad, was prepared. About 50, 4-5 day-old eggs of the corn rootworm (Diabrotica undecimpunctata) were transferred onto the filter paper. Three drops of 200 μl of an aqueous solution of the formulated preparation to be examined were pipetted onto the eggs, and the rest was pipetted onto the maize corn. The Petri dish was closed and then stored at about 25° C. in a climatized chamber. After 6 days of storage, the effect of the preparation on the eggs and any larvae which may have hatched from these (mortality) was determined. The following examples were active: No. 7.

[4] = tested on: L2 larvae of the Egyptian cotton leaf worm (Spodoptera littoralis); assay: Example D: L2 larvae of Egyptian cotton leaf worm, Petri dish with culture medium; conditions: 500 ppm or less, after 6 days
Protocol: as §1
A Petri dish whose bottom was covered with filter paper and which contained about 5 ml of culture medium was prepared. Five L2 larvae of the Egyptian cotton leaf worm (Spodoptera littoralis) were counted into small beakers. 200 μl of an aqueous solution of the formulated preparation to be examined were pipetted into the beaker. The treated larvae were then poured into the Petri dish, and a further 200 μl of the aqueous solution were distributed over the culture medium. The Petri dish was closed and then stored at about 25° C. in a climatized chamber. After 6 days of storage, the effect of the preparation on the larvae (mortality) was determined. The following examples were active: Nos. 27, 28, 29, 39, 43, 45, 59.

[5] = tested on: L2 larvae of the sugar beet armyworm (Spodoptera exigua); assay: Example H: L2 larvae of sugar beet armyworm, Petri dish with culture medium; conditions: 500 ppm or less, after 6 days
Protocol: as §1
A Petri dish whose bottom was covered with filter paper and which contained […] of culture medium was prepared. Five L2 larvae of the sugar beet armyworm (Spodoptera exigua) were counted into a small beaker. 200 μl of an aqueous solution of the formulated preparation to be examined were pipetted into the beaker. The treated larvae were then poured into the Petri dish and a further 200 μl of the aqueous solution were distributed over the culture medium. The Petri dish was closed and then stored at 25° C. in a climatized chamber. After 6 days of storage, the effect of the preparation on the larvae (mortality) was determined. The following examples were active: Nos. 31, 97, 226, 227, 228, 229, 351, 356, 357, 592, 593, 595, 949, 1001, 1126, 1129, 1132.

[6] = tested on: black bean aphids (Aphis fabae); assay: Example B: black bean aphids on field bean, dip treatment; conditions: 500 ppm or less; plants and aphids dipped 5 seconds; after 3 and 6 days
Text: as §1
Germinated field bean seeds (Vicia faba) with radicles were transferred into brown glass bottles filled with tap water and subsequently populated with approximately 100 black bean aphids (Aphis fabae). Plants and aphids were then dipped for 5 seconds into an aqueous solution of the formulated preparation to be examined. After the solution had run off, plants and animals were stored in an acclimatized chamber (16 hours of light/day, 25° C., 40-60% relative atmospheric humidity). After 3 and 6 days of storage, the effect of the preparation on the aphids (mortality) was determined. The following examples were active: Nos. 33, 36, 357, 1126.

[7] = tested on: spider mites (Tetranychus urticae); assay: Example A: spider mites on bean leaf, dip treatment; conditions: 500 ppm or less; leaf and mites dipped 5 seconds; after 6 days
Text: as §1
Cut stems of bean plants (Phaseolus vulgaris) carrying one leaf were transferred into brown glass bottles filled with tap water and subsequently populated with approximately 100 spider mites (Tetranychus urticae). The plant leaf and the spider mites were then dipped for 5 seconds into an aqueous solution of the formulated preparation to be examined. After the solution had run off, plants and animals were stored in a climatized chamber (16 hours of light/day, 25° C., 40-60% relative atmospheric humidity). After 6 days of storage, the effect of the preparation on all stages of the spider mites was determined. The following examples were active: Nos. 43, 45, 97, 1132.

[8] = tested on: L2 larvae of the sugar beet armyworm (Spodoptera exigua); assay: Example I: sugar beet armyworm L2 larvae on sprayed cotton leaves; conditions: 500 ppm or less, after 4 days
Protocol: as §1
Cotton plants were sprayed with an aqueous solution of the formulated preparation to be examined. After drying, leaves were cut off, placed into a Petri dish and populated with 5 L2 larvae of the sugar beet armyworm (Spodoptera exigua). After 4 days of storage at about 23° C., the effect of the preparation on the larvae (mortality) was determined. The following examples were active: Nos. 27, 28, 45, 59.

[9] = tested on: larvae of the diamondback moth (Plutella xylostella); assay: Example L: diamondback moth larvae on sprayed cabbage leaf; conditions: 500 ppm or less, after 4 days
Protocol: as §1
A cabbage leaf was sprayed with an aqueous solution of the formulated preparation to be examined. After drying, the treated leaf was populated with larvae of the diamondback moth (Plutella xylostella). After 4 days of storage at about 25° C., the effect of the preparation on the larvae (mortality) was determined. The following examples were active: Nos. 27, 28, 45.

Structure (SMILES)	effect of the preparation on the eggs and any larvae hatched (mortality) [1]	nematicidal contact action / nematicidal soil drench action [2]	effect of the preparation on the larvae (mortality) [5]	also measured
CC(=O)c1cc(OCC=C(Cl)Cl)cc(Cl)c1OCCCc1ccc(Cl)cc1 [compound 6]	active	active	–	–
COC(=O)c1cc(OCC=C(Cl)Cl)cc(Cl)c1OCCCc1ccc(Cl)cc1 [compound 7]	–	active	–	effect of the preparation on the eggs and any larvae hatched (mortality) [3]: active
CON=C(C)c1cc(OCC=C(Cl)Cl)cc(Cl)c1OCCCOc1ccc(C(F)(F)F)cn1 [compound 29]	active	active	–	effect of the preparation on the larvae (mortality) [4]: active
NC(=S)c1cc(OCC=C(Cl)Cl)cc(Cl)c1OCCCOc1ccc(C(F)(F)F)cn1 [compound 31]	active	–	active	–
CC(CO)NC(=O)c1cc(OCC=C(Cl)Cl)cc(Cl)c1OCCCOc1ccc(C(F)(F)F)cn1 (stereo not drawn) [compound 32]	–	active	–	–
CCNC(=O)c1cc(OCC=C(Cl)Cl)cc(Cl)c1OCCCOc1ccc(C(F)(F)F)cn1 [compound 34]	–	active	–	–
CON(C)C(=O)c1cc(OCC=C(Cl)Cl)cc(Cl)c1OCCCOc1ccc(C(F)(F)F)cn1 [compound 35]	active	–	–	–
CN(C)C(=O)c1cc(OCC=C(Cl)Cl)cc(Cl)c1OCCCOc1ccc(C(F)(F)F)cn1 [compound 36]	–	–	–	effect of the preparation on the aphids (mortality) [6]: active
CC(=O)c1cc(OCC=C(Cl)Cl)cc(Cl)c1OCCCCOc1ncc(Cl)cc1Cl [compound 43]	active	–	–	effect of the preparation on all stages of the spider mites [7]: active; effect of the preparation on the larvae (mortality) [4]: active
CC(=NO)c1cc(OCC=C(Cl)Cl)cc(Cl)c1OCCCCOc1ncc(Cl)cc1Cl [compound 44]	–	active	–	–
CON=C(C)c1cc(OCC=C(Cl)Cl)cc(Cl)c1OCCCCOc1ncc(Cl)cc1Cl [compound 45]	active	–	–	effect of the preparation on all stages of the spider mites [7]: active; effect of the preparation on the larvae (mortality) [4]: active; effect of the preparation on the larvae (mortality) [8]: active; effect of the preparation on the larvae (mortality) [9]: active
OCC#Cc1cc(OCC=C(Cl)Cl)cc(Cl)c1OCCCOc1ccc(C(F)(F)F)cn1 [compound 227]	active	–	active	–
COCC#Cc1cc(OCC=C(Cl)Cl)cc(Cl)c1OCCCOc1ccc(C(F)(F)F)cn1 [compound 228]	active	–	active	–
C#Cc1cc(OCC=C(Cl)Cl)cc(Cl)c1OCCCOc1ccc(C(F)(F)F)cn1 [compound 229]	active	–	active	–
CSCc1noc(-c2cc(OCC=C(Cl)Cl)cc(Cl)c2OCCCOc2ccc(C(F)(F)F)cn2)n1 [compound 351]	active	–	active	–
Cc1noc(-c2cc(OCC=C(Cl)Cl)cc(Cl)c2OCCCOc2ccc(C(F)(F)F)cn2)n1 [compound 357]	active	–	active	effect of the preparation on the aphids (mortality) [6]: active
CCOC(=O)C=Cc1cc(OCC=C(Cl)Cl)cc(Cl)c1OCCCOc1ccc(C(F)(F)F)cn1 [compound 592]	active	–	active	–
COC(=O)C=Cc1cc(OCC=C(Cl)Cl)cc(Cl)c1OCCCOc1ccc(C(F)(F)F)cn1 [compound 593]	active	–	active	–
C=Cc1cc(OCC=C(Cl)Cl)cc(Cl)c1OCCCOc1ccc(C(F)(F)F)cn1 [compound 595]	active	–	active	–

Reference: patent US20040029886A1, “Dihalopropene compounds, processes for their preparation, compositions comprising them and their use as pesticides” (priority 2001, published 2004)
